Results: patent US9834530B2, “3-furyl-2-cyano-2-acrylamide derivative, preparation method therefor, pharmaceutical composition and use thereof” (JENKEM TECHNOLOGY CO., LTD. (BEIJING), priority 2013, dated 2017)

Columns and labels:
[1] = test system: AD fruit flies (elav/Y; UAS-Aβ42/+; P35*H29.3); assay: Pavlovian olfactory learning test in AD fruit flies (anti-senile dementia effect); assay type: in vivo; details: for PI (mean value), learning and memory index: AD flies (P35*H29.3) given drug, final concentration 100 μM, 50 μl, day 2 to day 8, immediate memory tested day 9, PI=0 no memory, PI=100 all remember; for anti-senile dementia effect (in words, from Table 1): AD flies, T test against AD flies without administration: P>0.05, P<0.05 or P<0.01; for anti-senile dementia effect compared with JKF-006, JKF-027 and JKF-011: transgenic AD fruit flies, comparison with compounds of WO2012/103282
Description: In all tests, w^1118 (isoCJ1) was used as a control gene system, referred to as the “2U”. Progeny fruit flies with disease carrying P35 and H29.3 were obtained by integration of fruit flies carrying elav-GAL4^c155 (referred to as P35) and fruit flies carrying Aβ42 (UAS-Aβ42; referred to as H29.3). The first generation of fruit flies obtained by hybridization was used for behavioral testing. Details as follows:
All the fruit flies were reared in an environment with a temperature of 24° C., relative humidity of 40% RH. On the first day, newborn male 2U*H29.3 fruit flies and male AD fruit flies were picked out and put into glass bottles (there were about 120 fruit flies in each bottle). During administration period, these fruit flies were placed in an environment with a temperature of 28° C., relative humidity of 42% RH. From the second day to the eighth day, the fruit flies were transferred into new glass bottles 4 hours later after administration. All the fruit flies were placed in an environment with a temperature of 28° C., relative humidity of 42% RH until 1 hour before Pavlovian olfactory learning test.
On the first day of eclosion dispensation of drugs was conducted, the second day administration was carried out. The respective initial amount of compounds JK-01A, JK-03A, JK-05A, JK-06A and JK-07A was 10 mg, and the final concentration was 100 μM. Each group had two glass bottles of flies which were administered 50 μl within seven days (from the second day to the eighth day). During administration period, since some fruit flies died naturally or for other causes, about 100 flies were remained in each bottle when Pavlovian olfactory test was conducted on the ninth day.
The fruit flies were placed on the automatic training device for training. In training, a group of about 100 flies first contacted with one kind of odor (octanol or methyl cyclohexanol) accompanied by electric shocks (an electric shock of 60 V for 3.5 s at 1.5-s intervals) for 60 s, rested at 45-s intervals, and then contacted with another kind of odor (methyl cyclohexanol or octanol) without electric shocks for 60 s. To test the “immediate memory” (also called “learning”), flies after the training were immediately sent to the T-maze choice point, and allowed to choose between two kinds of odor, the learning and memory index PI (Performance index) in every test was calculated according to the number of flies choosing each kind of odor. PI=0 represented 50:50, meaning that fruit flies could not remember the odor accompanied by electric shocks, PI=100 represented that 100% of the flies remembered the odor accompanied by electric shocks. Learning test was carried out in a darkroom with a temperature of 25° C., relative humidity of 70% RH. The fruit flies entered the darkroom to be familiar with the environment 1 hour before test.
The test data was analyzed and plotted by employing GraphPad Prism.
In the activity test, the olfactory short-term memory impairment tests of healthy flies with the same genetic background and without administration, AD flies without administration, AD flies administrated positive or negative control drugs and AD flies administrated test drugs were carried out at the same time, their learning and memory indexes were calculated, and the learning and memory index of AD flies administrated test drugs was compared with those of healthy flies with the same genetic background, AD flies, AD flies administrated positive or negative control drugs to evaluate the anti-senile dementia effect of test compounds. A relatively higher learning and memory index of AD flies administrated test drugs represented a stronger anti-senile dementia effect of test compounds. […]

ICR mice = assay: Preliminary acute toxicity test; assay type: in vivo; details: given twice 3 hours apart, 14 days observation
Description: Method: in the acute toxicity test, ICR mice were used and divided into six groups for administration, with 10 mice in each group and half male and half female. […] The control group was administrated the same volume of vehicle. Observation was conducted for 14 consecutive days after administration.

Structure (SMILES)	PI (mean value), learning and memory index [1]	anti-senile dementia effect (in words, from Table 1) [1]	anti-senile dementia effect compared with JKF-006, JKF-027 and JKF-011 [1]	Test result (acute toxicity) (ICR mice; 4000 mg/kg/d p.o.)	Test result (acute toxicity) (ICR mice; 6000 mg/kg/d p.o.)	Test result (acute toxicity) (ICR mice; 5000 mg/kg/d p.o.)
N#C/C(=C/c1ccc(CO)o1)C(=O)Nc1ccc(F)cc1 [JK-01A, 2-cyano-N-(4-fluorophenyl)-3-(5-hydroxymethyl-2-furyl)-2-acrylamide]	65	significant anti-senile dementia effects	more significant anti-senile dementia effects	No death,		
COCCOCCOCc1ccc(/C=C(\C#N)C(=O)Nc2ccc(F)cc2)o1 [JK-06A, 2-cyano-N-(4-fluorophenyl)-3-[5-(2,5,8-trioxa-nonyl-1-yl)furan-2-yl]-2-acrylamide]	67	significant anti-senile dementia effects	more significant anti-senile dementia effects		No death,	
N#C/C(=C\c1ccc(CO)o1)C(=O)NCCc1c[nH]c2ccccc12 [JK-03A, 2-cyano-N-[2-(1H-indol-3-yl)ethyl]-3-(5-hydroxymethyl-2-furyl)-2-acrylamide]	56	significant anti-senile dementia effects	more significant anti-senile dementia effects		No death,	
N#C/C(=C\c1ccc(-c2cc(C(=O)O)ccc2Cl)o1)C(=O)Nc1ccc(F)cc1 [JKF-006, reference compound]	37	equivalent anti-senile dementia effects				
N#C/C(=C\c1ccc(N2CCOCC2)o1)C(=O)NCCc1c[nH]c2ccccc12 [JKF-027, reference compound]	54	had anti-senile dementia effects				
N#CC(=Cc1ccc(COCCOCCOCCO)o1)C(=O)NCCc1c[nH]c2ccccc12 [JK-07A, 2-cyano-N-[2-(1H-3-indolyl)ethyl]-3-[5-(1,4,7,10-tetraoxa-undecane-11-yl)furan-2-yl]-2-acrylamide]	58	significant anti-senile dementia effects	more significant anti-senile dementia effects	No death,		
CC(/C=C/C=C(\C)C(=O)O)=C\C=C\C=C(C)\C=C\C=C(/C)C(=O)O [Crocetin, reference compound]	40	equivalent anti-senile dementia effects				
Cc1nc(Nc2ncc(C(=O)Nc3c(C)cccc3Cl)s2)cc(N2CCN(CCO)CC2)n1 [Dasatinib, reference compound]	56					
C#Cc1cccc(Nc2ncnc3cc(OCCOC)c(OCCOC)cc23)c1 [Erlotinib, reference compound]	48	had anti-senile dementia effects				
N#C/C(=C\c1ccc(NCCOCCO)o1)C(=O)NCCc1c[nH]c2ccccc12 [JK-05A, 2-cyano-N-[2-(1H-3-indolyl)ethyl]-3-{5-[2-(2-hydroxyethoxy)ethylamino]-2-furyl}-2-acrylamide]	40	equivalent anti-senile dementia effects				No death,
